From patent US20160208016A1, “Anti-ADAM12 antibodies for the treatment of cancer” (UNIVERSITY OF COPENHAGEN, priority 2013, published 2016)

Experiments:
MCF7-A12Δcyt+dox cells = experiment: Type I collagen-induced apoptosis in 3-D collagen cultures, MCF7-A12Δcyt+dox; format: cell-based, human; conditions: 10 μg/ml 8F8 or 10 μM GM6001 every second day
Experimental: (§1) (A) MCF7, MCF7-A12Δcyt, and MCF7-A12Δcyt+dox cell lines were embedded in 3-D collagen and the mean percentage of apoptotic bodies (±s.d.) was determined from >500 cells per experiment. (B) Western blot analysis of ADAM12, MMP-14, BIK, and BIM from cells recovered from 3-D collagen. The bar graph depicts levels of BIK and BIM; determined by quantification of the band intensities (using ImageJ software) and normalized to actin. The MCF7 level was set to 1. (C,D) Mean percentage of apoptotic bodies (±s.d.) from >500 cells of 3-D collagen cultures of MCF7, MCF7-A12Δcyt, and MCF7-A12Δcyt+dox (C) and MDA-MB-231. (D) Cells treated every second day with control mouse IgG, 10 μg/ml 8F8, or 10 μM GM6001. (E) Western blot of cells recovered from 3-D cultures of MDA-MB-231 cells analyzed for MMP-14 after siRNA treatment. […]
(§2) (A) A representative micrograph of MCF7-A12Δcyt+dox cells extracted from 3-D cultures and stained with DAPI. Apoptosis was evaluated by counting the percentage of the number of cells with chromatin condensation and nuclear fragmentation (arrow=apoptotic bodies). […]
(§3) Cells were seeded on dishes coated with gelatin (10 μg/ml) coupled to Oregon Green® 488 dye (G-13186) from Molecular Probes (Life Technologies, Naerum, Denmark). […] For each experiment more than 1000 cells were counted and same type of experiment was repeated independently at least three times. […]

[1] = system: 293-VnR cells transfected with ADAM12Δcyt; experiment: In situ solid-phase gelatinase assay, 293-VnR cells transfected with ADAM12Δcyt; format: cell-based, human; conditions: 10 μM overnight vs vehicle only
Experimental: Data are expressed as the mean gelatin degradation (±s.d.) relative to the mean ADAM12Δcyt degradation value (set at 100%). (B) In situ solid-phase gelatinase assay of 293-VnR cells transfected with ADAM12Δcyt or control vector and treated with GM6001 (10 μM), TAPI-2 (10 μM), or vehicle only (control) overnight. Cells were stained for ADAM12 and for the nucleus (DAPI). The mean number of gelatin-degrading ADAM12-positive cells (±s.d.) is presented as a percentage of the total number of ADAM12-positive cells. (C) In situ solid-phase gelatinase assay of 293-VnR cells cotransfected with ADAM12Δcyt and control or MMP-14 siRNA. Mean data (±s.d.) are expressed relative to the mean siRNA control degradation value (set at 100%). Inset, Western blots of total cell lysates analyzed for MMP-14. […] Gelatin degradation was quantified by measuring the degraded area in μm^2 and correlated to the number of cells. […]
(A) In situ solid-phase gelatinase assay of HEK293 cells transfected with ADAM12Δcyt and immunostained for ADAM12, and DAPI staining. […] Precipitates and input samples were analysed by Western blotting with indicated antibodies. […] (E) Mean percentage cell-surface staining of αVβ3 integrin (LM609 antibody staining) for MCF7, MCF7-A12Δcyt, MCF7-A12Δcyt+dox, and MDA-MB-231 cell lines analyzed by FACS. […]

MDA-MB-231 cells = experiment: Apoptosis in 3-D collagen cultures, MDA-MB-231; format: cell-based, human; conditions: 10 μg/ml 8F8 or 10 μM GM6001 every second day, compared with control cells
Experimental: as §1, §2, §3

MCF7-A12Δcyt cells = experiment: Type I collagen-induced apoptosis in 3-D collagen cultures, MCF7-A12Δcyt; format: cell-based, human; conditions: 10 μM GM6001 every second day
Experimental: as §1, §2, §3

wild-type MCF7 cells = experiment: Type I collagen-induced apoptosis in 3-D collagen cultures, wild-type MCF7; format: cell-based, human; conditions: 10 μg/ml 8F8 or 10 μM GM6001 every second day
Experimental: as §1, §2, §3

αVβ3 integrin = αVβ3 integrin (UniProt P06756); experiment: cell-based or functional assay
Chain of UniProt P06756 (P06756 31-1048, chain 1 of 2): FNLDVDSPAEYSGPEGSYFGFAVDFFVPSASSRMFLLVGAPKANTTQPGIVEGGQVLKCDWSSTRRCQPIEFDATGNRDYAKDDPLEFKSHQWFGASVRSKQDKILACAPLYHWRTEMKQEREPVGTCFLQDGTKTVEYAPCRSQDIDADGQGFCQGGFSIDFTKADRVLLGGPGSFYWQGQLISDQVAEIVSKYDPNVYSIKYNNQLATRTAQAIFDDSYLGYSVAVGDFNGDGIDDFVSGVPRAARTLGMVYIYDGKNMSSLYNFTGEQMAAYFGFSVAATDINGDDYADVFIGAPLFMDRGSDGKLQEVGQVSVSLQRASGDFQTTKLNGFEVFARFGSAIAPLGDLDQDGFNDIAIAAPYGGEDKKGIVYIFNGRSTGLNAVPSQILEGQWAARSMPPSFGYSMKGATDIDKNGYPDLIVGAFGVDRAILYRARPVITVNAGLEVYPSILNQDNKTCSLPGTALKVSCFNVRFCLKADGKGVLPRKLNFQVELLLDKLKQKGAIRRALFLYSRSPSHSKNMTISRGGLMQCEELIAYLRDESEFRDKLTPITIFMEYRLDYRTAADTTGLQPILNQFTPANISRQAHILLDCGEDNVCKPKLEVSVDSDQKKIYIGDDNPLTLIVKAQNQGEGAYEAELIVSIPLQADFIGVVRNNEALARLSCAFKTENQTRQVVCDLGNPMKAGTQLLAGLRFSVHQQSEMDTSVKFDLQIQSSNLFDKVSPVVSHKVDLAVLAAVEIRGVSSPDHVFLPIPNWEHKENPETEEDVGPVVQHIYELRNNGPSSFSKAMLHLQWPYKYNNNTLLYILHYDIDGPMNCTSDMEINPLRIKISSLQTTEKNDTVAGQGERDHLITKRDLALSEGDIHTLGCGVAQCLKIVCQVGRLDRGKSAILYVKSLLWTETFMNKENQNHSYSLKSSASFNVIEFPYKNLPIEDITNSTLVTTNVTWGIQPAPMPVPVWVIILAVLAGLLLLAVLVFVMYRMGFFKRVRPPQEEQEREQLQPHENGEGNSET
Chain of UniProt P06756 (P05106 27-788, chain 2 of 2, further chain): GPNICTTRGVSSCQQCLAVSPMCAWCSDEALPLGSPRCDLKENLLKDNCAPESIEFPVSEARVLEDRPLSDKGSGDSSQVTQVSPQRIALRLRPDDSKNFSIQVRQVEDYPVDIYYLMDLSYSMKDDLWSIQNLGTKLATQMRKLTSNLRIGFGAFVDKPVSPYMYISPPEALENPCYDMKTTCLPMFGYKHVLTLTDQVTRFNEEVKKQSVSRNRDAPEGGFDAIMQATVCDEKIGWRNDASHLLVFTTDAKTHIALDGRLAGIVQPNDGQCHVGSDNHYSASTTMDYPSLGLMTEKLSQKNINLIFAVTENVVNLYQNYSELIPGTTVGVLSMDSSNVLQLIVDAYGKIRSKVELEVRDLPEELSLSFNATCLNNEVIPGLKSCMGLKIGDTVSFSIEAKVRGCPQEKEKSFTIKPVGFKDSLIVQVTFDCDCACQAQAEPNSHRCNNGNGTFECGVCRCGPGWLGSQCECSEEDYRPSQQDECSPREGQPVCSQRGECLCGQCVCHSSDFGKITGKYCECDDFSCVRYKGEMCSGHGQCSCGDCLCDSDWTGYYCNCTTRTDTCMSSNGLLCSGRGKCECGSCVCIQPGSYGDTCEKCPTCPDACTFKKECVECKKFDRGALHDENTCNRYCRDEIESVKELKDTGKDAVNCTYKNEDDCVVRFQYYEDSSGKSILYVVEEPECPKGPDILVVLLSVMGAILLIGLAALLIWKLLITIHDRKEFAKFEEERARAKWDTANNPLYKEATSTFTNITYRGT

reduction of gelatin degradation in MCF7-A12Δcyt cell cultures (αVβ3 integrin) [%] | Compound | effect on apoptosis (apoptotic bodies, ApopTag) (MCF7-A12Δcyt+dox cells) | gelatin degradation [1] | levels of apoptotic bodies (MDA-MB-231 cells) | fraction of apoptotic bodies (MCF7-A12Δcyt cells) | effect on apoptosis (apoptotic bodies, ApopTag) (wild-type MCF7 cells)
– | CNC(=O)[C@H](Cc1c[nH]c2ccccc12)NC(=O)[C@@H](CC(=O)NO)CC(C)C [GM6001] | no effects | significant reduction | significantly increased | significantly increased | no effects
80 | mouse monoclonal antibody LM609 against αVβ3 integrin (Chemicon/Millipore) | – | – | – | – | –
– | CC(C)C[C@H](CC(=O)NO)C(=O)N[C@H](C(=O)N[C@@H](C)C(=O)NCCN)C(C)(C)C [TAPI-2] | – | significant reduction | – | – | –
